In patent publication US20210253550A1, “THERAPEUTIC COMPOUNDS AND COMPOSITIONS” (eXIthera Pharmaceuticals, Inc., priority 2018, published 2021):

Legend:
[1] = Relative stability of the forms: competitive slurries of Pattern A and amorphous form; type: physicochemical; conditions: Pattern A + amorphous form in TBME, IPA and THF:H2O (95:5), RT and 45° C.
[2] = Solubility of Compound 1.HCl measured gravimetrically in solvents/solvent mixtures; type: physicochemical; conditions: thermodynamic from solid, slurried 48 h, gravimetric
Experimental: Solubility of Compound 1.HCl was measured gravimetrically in 12 different solvents and solvent mixtures at 15 and 45° C. About 90 mg of the compound was dispensed in 1 mL of the solvent/solvent mixture and slurried for 48 h. The vials were centrifuged. The supernatant was collected and left for slow evaporation under vacuum at 45° C. The solids obtained after evaporation were used to determine the solubility of Compound 1.HCl and analyzed by XRPD for any new form. Table 1 represents the solubility of Compound 1.HCl in different solvents.

[3] = Dynamic Vapor Sorption (DVS) with XRPD before and after; type: physicochemical
Experimental: Samples were analyzed using an Aquadyne DVS-2 gravimetric water sorption analyzer. The relative humidity was adjusted between 2-95% and the weight of the sample was continuously monitored and recorded with respect to the relative humidity and time.
The same material was subjected under the Dynamic Vapor Sorption (DVS, FIGS. 3 and 4).
The purity of the sample was also verified by ^1H-NMR. […] The amorphous salt was also studied by DVS. During Desorption 1, (from 50 to 0% RH), a weight loss of around 3% was observed whilst, during Sorption 1 (from 0 to 95% RH), a weight gain of 10%. Desorption 2 indicates a weight loss of 3% was observed and during Sorption 2 (from 0 to 95% RH) the weight loss was continued to additional 1%. In the final stage, Desorption 3 (from 95 to 50% RH), around 1% weight loss was observed (see FIG. 17). The amorphous Compound 1.HCl was analyzed by XRPD and optical microscopy post-DVS experiment.

[4] = system: blood coagulation components; type: in vivo
Experimental: The following parameters and endpoints were evaluated in this study: mortality, body weight, physical, clinical pathology parameters (hematology and coagulation), coagulation time, and bioanalytical parameters.
The vehicle and test article were administered via intravenous (IV) infusion once on Day 1 for 135 minutes (initiated 30 minutes prior to starting the Cardiopulmonary Bypass (CPB) and continuing for 105 minutes of CPB). Group 2 animals received a […] IV bolus dose immediately prior to the start of IV infusion. Group 3, 4, and 5 animals received a 10 mg/kg IV bolus dose prior to the start of the IV infusion; with the CPB machine primed with test article at 10 μg/mL.
Infusion of the Compound 1 was started 30 minutes prior to the animal being placed on the CPB pump. The CPB pump was primed with 0.9% saline.
Venous and arterial sheaths were flushed with the Compound 1 at a concentration of 10 μg/mL. An IV bolus dose of the test article was administered immediately prior to the start of the infusion. Infusion of Compound 1 was started 30 minutes prior to the animal being placed on the CPB pump. The CPB […] was primed with 10 μg/mL of the Compound 1 prior to initiation of the CPB pump.
An IV bolus dose of the Compound 1 was administered immediately prior to the start of the infusion. Infusion of Compound 1 was started 30 minutes prior to the animal being placed on the CPB pump.

[5] = Heating of amorphous salt at 140° C., XRPD and DSC; type: physicochemical; conditions: amorphous salt heated to 140° C. for 30 min (Sample D9)
Experimental: FIG. 18 illustrates the post-DVS XRPD comparison with the amorphous and Pattern A (original salt). The amorphous salt was heated to 140° C. for 30 min and characterized by XRPD and DSC (Sample ID: D9). […] The DSC thermogram in FIG. 21 also confirms the conversion of amorphous to crystalline (Pattern A) after heating the amorphous sample at 140° C.

[6] = amorphous salt (Sample C1), from 0 to 95% RH

C[C@@H](NC(=O)N1C(=O)[C@H](Cc2ccnc(N)c2)[C@H]1C(=O)O)C1CCCCC1.Cl [Compound 1.HCl]
solid form by XRPD of competitive slurries after 24 h [1]: did not exhibit any change in the crystalline form (Pattern A)
solid form by XRPD of competitive slurries at t=5 min [1]: transformed to Pattern A
solubility at 48 h ([2]; aqueous with cosolvent or surfactant or cyclodextrin, MeOH:H2O (1:1), 15° C.): > 100000 µg/mL
solubility at 48 h ([2]; aqueous with cosolvent or surfactant or cyclodextrin, MeOH:H2O (1:1), 45° C.): > 100000 µg/mL
solubility at 48 h ([2]; organic solvent or mixture, Acetone, 15° C.): 2200 µg/mL
solubility at 48 h ([2]; organic solvent or mixture, Acetone, 45° C.): 4800 µg/mL
solubility at 48 h ([2]; organic solvent or mixture, EtOAc, 15° C.): 200 µg/mL
solubility at 48 h ([2]; organic solvent or mixture, EtOAc, 45° C.): 2100 µg/mL
solubility at 48 h ([2]; organic solvent or mixture, EtOH:H2O (95:5), 15° C.): > 100000 µg/mL
solubility at 48 h ([2]; organic solvent or mixture, EtOH:H2O (95:5), 45° C.): > 100000 µg/mL
solubility at 48 h ([2]; organic solvent or mixture, Heptane, 15° C.): < 1000 µg/mL
solubility at 48 h ([2]; organic solvent or mixture, Heptane, 45° C.): 2100 µg/mL
solubility at 48 h ([2]; organic solvent or mixture, IPA, 15° C.): 17000 µg/mL
solubility at 48 h ([2]; organic solvent or mixture, IPA, 45° C.): 43000 µg/mL
solubility at 48 h ([2]; organic solvent or mixture, IPA:H2O (9:1), 15° C.): > 100000 µg/mL
solubility at 48 h ([2]; organic solvent or mixture, IPA:H2O (9:1), 45° C.): > 100000 µg/mL
solubility at 48 h ([2]; organic solvent or mixture, MeCN, 15° C.): 700 µg/mL
solubility at 48 h ([2]; organic solvent or mixture, MeCN, 45° C.): 700 µg/mL
solubility at 48 h ([2]; organic solvent or mixture, MeOH, 15° C.): > 100000 µg/mL
solubility at 48 h ([2]; organic solvent or mixture, MeOH, 45° C.): > 100000 µg/mL
solubility at 48 h ([2]; organic solvent or mixture, TBME, 15° C.): 400 µg/mL
solubility at 48 h ([2]; organic solvent or mixture, TBME, 45° C.): 4100 µg/mL
solubility at 48 h ([2]; organic solvent or mixture, THF, 15° C.): 1200 µg/mL
solubility at 48 h ([2]; organic solvent or mixture, THF, 45° C.): 6700 µg/mL
solubility at 48 h ([2]; Water, 15° C.): > 100000 µg/mL
solubility at 48 h ([2]; Water, 45° C.): > 100000 µg/mL
crystalline pattern by XRPD after DVS ([3]; crystalline Pattern A, after DVS): did not change
moisture uptake (DVS) ([3]; crystalline Pattern A, relative humidity levels between 0-95%): about 4%

C[C@@H](NC(=O)N1C(=O)[C@H](Cc2ccnc(N)c2)[C@H]1C(=O)O)C1CCCCC1 [Compound 1, (2S,3R)-3-[(2-aminopyridin-4-yl)methyl]-1-{[(1R)-1-cyclohexylethyl]carbamoyl}-4-oxoazetidine-2-carboxylic acid]
morbidity or mortality ([4]; dog, in vivo): not associated with any increases in morbidity or mortality
survival ([4]; dog, in vivo): All animals survived to study termination
prevention of activation of blood coagulation in components of cardiopulmonary bypass ([4]; hound CPB model, 105-minute CPB run): successful in preventing the activation of blood coagulation in components of cardiopulmonary bypass
pressure gradient across the membrane oxygenator ([4]; hound CPB model, IV infusion at multiple doses, entire pump run): stayed consistent through the entire run
selectivity of anticoagulant effects ([4]; hound CPB model, coagulation parameters): selective to inhibition of activated partial thromboplastin time (aPTT)
aPTT during Compound 1 infusion and prior to CPB ([4]; hound, all animals, IV infusion 3 or 10 mg/kg/hr): moderately to markedly prolonged
aPTT following cessation of infusion and CPB, at the conclusion of the study ([4]; hound, all groups): remained moderately prolonged

C[C@@H](NC(=O)N1C(=O)[C@H](Cc2ccnc(N)c2)[C@H]1C(=O)O)C1CCCCC1.Cl [amorphous Compound 1.HCl]
weight loss, DVS Desorption 2 ([3]; amorphous salt (Sample C1)): 3%
solid form by XRPD post-DVS ([3]; amorphous salt (Sample C1), post-DVS experiment): reverts back to crystalline salt (Pattern A)
additional weight loss, DVS Sorption 2 [3, 6]: 1%
weight gain, DVS Sorption 1 [3, 6]: 10%
weight loss, DVS Desorption 1 ([3]; amorphous salt (Sample C1), from 50 to 0% RH): around 3%
weight loss, DVS Desorption 3 ([3]; amorphous salt (Sample C1), from 95 to 50% RH): around 1%
solid form by XRPD after heating [5]: transformation to Pattern A (crystalline salt)
